Measurements published in the supplement of paper PMC10307832.

Tests used:
Assay in all cases: relative viability (nuclei count vs DMSO), 5 days (fraction); higher = more cells survive
[1] = compound: Cn1nnc2c(C(N)=O)ncn2c1=O [Temozolomide] + Nc1ncn([C@H]2C[C@H](O)[C@@H](CO)O2)c(=O)n1 [Decitabine] (partner 2 µM)
How it was run: (§1)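 Dosing by pin tool came one day after lung cancer cell lines were seeded in 1536-well plates, using either one drug or a fixed anchor-drug dose plus five library-drug doses (not always all listed) in √10 steps. After 5 days, nuclei were counted on 4× images. Relative viability is treated-well nuclei count divided by vehicle-well nuclei count, and values are medians of duplicate plates.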

[2] = compound: C[C@@H](C(=O)N[C@@H](C1CCCCC1)C(=O)N2CCC[C@H]2C(=O)N[C@@H]3[C@@H](CC4=CC=CC=C34)OCC#CC#CCO[C@@H]5CC6=CC=CC=C6[C@@H]5NC(=O)[C@@H]7CCCN7C(=O)[C@H](C8CCCCC8)NC(=O)[C@H](C)NC)NC [AZD5582] + Nc1nc2[nH]cc(CCc3ccc(C(=O)N[C@@H](CCC(=O)O)C(=O)O)cc3)c2c(=O)[nH]1 [Pemetrexed] (partner 0.2 µM)
How it was run: as §1

[3] = compound: C[C@@H](C(=O)N[C@@H](C1CCCCC1)C(=O)N2CCC[C@H]2C(=O)N[C@@H]3[C@@H](CC4=CC=CC=C34)OCC#CC#CCO[C@@H]5CC6=CC=CC=C6[C@@H]5NC(=O)[C@@H]7CCCN7C(=O)[C@H](C8CCCCC8)NC(=O)[C@H](C)NC)NC [AZD5582] + CC(=O)c1c(C)c2cnc(Nc3ccc(N4CCNCC4)cn3)nc2n(C2CCCC2)c1=O [Palbociclib] (partner 0.5 µM)
How it was run: as §1

[4] = compound: Cn1nnc2c(C(N)=O)ncn2c1=O [Temozolomide] + Cc1nc(NC(=O)N2CCC[C@H]2C(N)=O)sc1-c1ccnc(C(C)(C)C(F)(F)F)c1 [Alpelisib] (partner 2 µM)
How it was run: as §1

Cell Line	relative viability ([1]; first compound 0.2 µM)	relative viability ([1]; first compound 0.6325 µM)	relative viability ([1]; first compound 2 µM)	relative viability ([1]; first compound 6.325 µM)	relative viability ([1]; first compound 20 µM)	relative viability ([2]; first compound 0.001581 µM)	relative viability ([2]; first compound 0.005 µM)	relative viability ([2]; first compound 0.01581 µM)	relative viability ([2]; first compound 0.05 µM)	relative viability ([3]; first compound 0.001581 µM)	relative viability ([3]; first compound 0.005 µM)	relative viability ([3]; first compound 0.01581 µM)	relative viability ([3]; first compound 0.05 µM)	relative viability ([4]; first compound 0.2 µM)	relative viability ([4]; first compound 0.6325 µM)	relative viability ([4]; first compound 2 µM)	relative viability ([4]; first compound 6.325 µM)	relative viability ([4]; first compound 20 µM)
NCI-H650	0.355	0.319	0.348	0.303	0.339	0.843	0.959	0.605	0.644	0.328	0.287	0.255	0.245	1.18	1.19	1.13	1.12	1.06
LC-2-ad	0.795	0.766	0.775	0.874	0.665	0.283	0.272	0.28	0.278	0.465	0.535	0.46	0.543	0.896	0.842	0.942	0.818	0.642
NCI-H1299														1.11	1.11	1.14	1.04	1.05
NCI-H3122	0.438	0.484	0.611	0.478	0.378	0.165	0.152	0.197	0.116	0.197	0.185	0.181	0.143	0.75	0.776	0.795	0.73	0.663
EBC-1														0.982	0.812	0.918	0.769	0.871
NCI-H441	0.255	0.279	0.226	0.278	0.254	0.253	0.314	0.292	0.253	0.232	0.224	0.206	0.187	0.881	0.804	0.901	0.743	0.566
LOU-NH91	0.699	0.801	0.849	0.815	0.634	0.341	0.367	0.367	0.408	0.529	0.54	0.487	0.532	0.57	0.726	0.789	0.702	0.47
LXF-289	0.388	0.403	0.367	0.373	0.391	0.798	0.815	0.872	0.797	0.575	0.585	0.577	0.598	1.06	0.997	1.04	0.992	0.947
HCC-827	0.228	0.357	0.339	0.34	0.169	0.272	0.273	0.283	0.205	0.481	0.47	0.492	0.529	0.995	0.978	1.02	0.995	0.136
RERF-LC-KJ	0.738	0.78	0.733	0.617	0.712	0.154	0.235	0.457	0.289	0.354	0.494	1.03	0.27	0.638	0.88	0.923	0.861	0.743
NCI-H2228						0.281	0.285	0.305	0.21	0.674	0.706	0.84	0.127	0.77	0.721	0.516	0.813	0.679
SW 1573	0.589	0.535	0.577	0.456	0.462	0.805	0.774	0.954	0.821	0.352	0.451	0.402	0.407	0.714	0.783	0.809	0.69	0.8
NCI-H1792	0.434	0.599	0.407	0.549	0.54	0.71	0.881	0.557	1.05	0.629	0.715	0.624	0.776	0.535	0.749	0.677	0.651	0.791
ChaGo-K-1	0.521	0.524	0.529	0.54	0.507	0.243	0.267	0.254	0.276	0.882	0.943	0.921	1.01					
NCI-H1650	0.45	0.422	0.515	0.457	0.532	0.385	0.396	0.362	0.412	0.37	0.43	0.334	0.328					
HARA	0.677	0.607	0.594	0.523	0.489	0.22	0.213	0.214	0.231	0.257	0.275	0.233	0.318	0.72	0.945	0.81	0.773	0.666
SW 900	0.428	0.427	0.453	0.511	0.427	0.366	0.466	0.486	0.435	0.443	0.566	0.531	0.435					
